Experimental data from US20200048267A1, “OGA INHIBITOR COMPOUNDS” (Janssen Pharmaceutica NV, priority 2017, published 2020).

Experiments:
OGA = biological target: T1, OGA (Homo sapiens, UniProt O60502); assay: OGA cellular assay (ICC detection of O-GlcNAcylated proteins in HEK293 cells inducible for P301L mutant human Tau); format: cell-based; details: 6 hours incubation; for EC50: read-out: CELLULAR hOGA, pEC50 (converted)
T1 construct: HEK293 cells inducible for P301L mutant human Tau (isoform 2N4R) were established at Janssen; endogenous in cells; host or cells: HEK293 cells inducible for P301L mutant human Tau (2N4R)
T1 sequence (O60502 1-916): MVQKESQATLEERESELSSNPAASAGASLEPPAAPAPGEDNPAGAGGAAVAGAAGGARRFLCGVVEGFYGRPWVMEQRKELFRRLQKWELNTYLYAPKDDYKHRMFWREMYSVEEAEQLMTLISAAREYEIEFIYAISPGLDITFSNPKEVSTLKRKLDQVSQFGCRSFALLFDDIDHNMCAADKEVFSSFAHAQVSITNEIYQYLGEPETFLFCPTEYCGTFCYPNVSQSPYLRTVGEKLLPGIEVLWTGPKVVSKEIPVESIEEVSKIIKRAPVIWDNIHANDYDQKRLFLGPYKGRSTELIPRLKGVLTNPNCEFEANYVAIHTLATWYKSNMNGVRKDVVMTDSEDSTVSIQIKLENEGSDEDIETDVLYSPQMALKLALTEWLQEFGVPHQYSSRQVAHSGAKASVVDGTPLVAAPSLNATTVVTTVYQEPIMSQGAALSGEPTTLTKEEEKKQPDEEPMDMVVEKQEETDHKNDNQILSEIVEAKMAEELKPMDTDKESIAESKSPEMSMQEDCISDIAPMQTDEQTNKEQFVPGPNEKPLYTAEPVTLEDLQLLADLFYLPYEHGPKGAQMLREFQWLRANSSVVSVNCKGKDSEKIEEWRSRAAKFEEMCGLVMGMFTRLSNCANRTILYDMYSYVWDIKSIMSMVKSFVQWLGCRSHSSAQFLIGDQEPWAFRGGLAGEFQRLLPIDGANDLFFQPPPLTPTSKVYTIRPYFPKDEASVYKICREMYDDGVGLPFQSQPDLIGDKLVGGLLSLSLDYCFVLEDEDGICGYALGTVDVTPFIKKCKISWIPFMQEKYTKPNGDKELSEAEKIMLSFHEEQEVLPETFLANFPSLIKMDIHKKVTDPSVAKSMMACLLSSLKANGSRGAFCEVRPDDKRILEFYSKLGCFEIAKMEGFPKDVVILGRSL
Description: HEK293 cells inducible for P301L mutant human Tau (isoform 2N4R) were established at Janssen. Thiamet-G was used for both plate validation (high control) and as reference compound (reference EC50 assay validation). OGA inhibition is evaluated through the immunocytochemical (ICC) detection of O-GlcNAcylated proteins by the use of a monoclonal antibody (CTD110.6; Cell Signaling, #9875) detecting O-GlcNAcylated residues as previously described (Dorfmueller et al. 2010 Chemistry & biology, 17:1250). Inhibition of OGA will result in an increase of O-GlcNAcylated protein levels resulting in an increased signal in the experiment. Cell nuclei are stained with Hoechst to give a cell culture quality control and a rough estimate of immediate compounds toxicity, if any. ICC pictures are imaged with a Perkin Elmer Opera Phenix plate microscope and quantified with the provided software Perkin Elmer Harmony 4.1.
Cells were propagated in DMEM high Glucose (Sigma, #D5796) following standard procedures. 2 days before the cell assay cells are split, counted and seeded in Poly-D-Lysine (PDL) coated 96-wells (Greiner, #655946) plate at a cell density of 12,000 cells per cm^2 (4,000 cells per well) in 100 µl of Assay Medium (Low Glucose medium is used to reduce basal levels of GlcNAcylation) (Park et al. 2014 The Journal of biological chemistry 289:13519). At the day of compound test medium from assay plates was removed and replenished with 90 μl of fresh Assay Medium. 10 μl of compounds at a 10 fold final concentration were added to the wells. Plates were centrifuged shortly before incubation in the cell incubator for 6 hours. DMSO concentration was set to 0.2%. Medium is discarded by applying vacuum. For staining of cells medium was removed and cells washed once with 100 μl D-PBS (Sigma, #D8537). From next step onwards unless other stated assay volume was always 50 μl and incubation was performed without agitation and at room temperature. Cells were fixed in 50 μl of a 4% paraformaldehyde (PFA, Alpha aesar, # 043368) PBS solution for 15 minutes at room temperature. […] Before analysis samples were washed 2 times manually for 5 minutes in ICC base buffer.
Imaging is performed using Perkin Elmer Phenix Opera using a water 20× objective and recording 9 fields per well. Intensity readout at 488 nm is used as a measure of O-GlcNAcylation level of total proteins in wells. To assess potential toxicity of compounds nuclei were counted using the Hoechst staining. IC50-values are calculated using parametric non-linear regression model fitting. As a maximum inhibition Thiamet G at a 200 uM concentration is present on each plate. In addition, a concentration response of Thiamet G is calculated on each plate.

[1] = biological target: T2, recombinant human Meningioma Expressed Antigen 5 (MGEA5), also referred to as O-GlcNAcase (OGA) (Homo sapiens, UniProt O60502); assay: OGA biochemical assay (inhibition of FM-GlcNAc hydrolysis, fluorescence); details: for Emax: read-out: ENZYMATIC Emax (%); for IC50: read-out: ENZYMATIC hOGA, pIC50 (converted)
T2 construct: Full length OGA enzyme was purchased at OriGene (cat # TP322411); purchased OriGene TP322411
T2 sequence (O60502 1-916): T1 sequence (O60502 1-916)
Text: The assay is based on the inhibition of the hydrolysis of fluorescein mono-β-D-N-Acetyl-Glucosamine (FM-GlcNAc) (Mariappa et al. 2015, Biochem J 470:255) by the recombinant human Meningioma Expressed Antigen 5 (MGEA5), also referred to as O-GlcNAcase (OGA). The hydrolysis FM-GlcNAc (Marker Gene technologies, cat # M1485) results in the formation of B-D-N-glucosamineacetate and fluorescein. The fluorescence of the latter can be measured at excitation wavelength 485 nm and emission wavelength 538 nm. An increase in enzyme activity results in an increase in fluorescence signal. Full length OGA enzyme was purchased at OriGene (cat # TP322411). The enzyme was stored in 25 mM Tris.HCl, pH 7.3, 100 mM glycine, 10% glycerol at −20° C. Thiamet G and GlcNAcStatin were tested as reference compounds (Yuzwa et al. 2008 Nature Chemical Biology 4:483; Yuzwa et al. 2012 Nature Chemical Biology 8:393). The assay was performed in 200 mM Citrate/phosphate buffer supplemented with 0.005% Tween-20. 35.6 g Na2HPO4 2 H2O (Sigma, # C0759) were dissolved in 1 L water to obtain a 200 mM solution. 19.2 g citric acid (Merck, # 1.06580) was dissolved in 1 L water to obtain a 100 mM solution. pH of the sodium phosphate solution was adjusted with the citric acid solution to 7.2. The buffer to stop the reaction consists of a 500 mM Carbonate buffer, pH 11.0. 734 mg FM-GlcNAc were dissolved in 5.48 mL DMSO to obtain a 250 mM solution and was stored at −20° C. OGA was used at 2 nM concentration and FM-GlcNAc at a 100 uM final concentration. Dilutions were prepared in assay buffer.
50 nl of a compound dissolved in DMSO was dispensed on Black Proxiplate™ 384 Plus Assay plates (Perkin Elmer, #6008269) and 3 μl fl-OGA enzyme mix added subsequently. Plates were pre-incubated for 60 min at room temperature and then 2 μl FM-GlcNAc substrate mix added. […] Plates were briefly centrifuged for 1 min at 1000rpm and incubate at room temperature for 6 h. To stop the reaction 5 μl STOP buffer were added and plates centrifuge again 1 min at 1000 rpm.
Fluorescence was quantified in the Thermo Scientific Fluoroskan Ascent or the PerkinElmer EnVision with excitation wavelength 485 nm and emission wavelength 538 nm.
For analysis a best-fit curve is fitted by a minimum sum of squares method. From this an IC50 value and Hill coefficient was obtained. High control (no inhibitor) and low control (saturating concentrations of standard inhibitor) were used to define the minimum and maximum values.

| Structure (SMILES) | Emax (OGA) | EC50 (OGA) | Emax [1] | IC50 [1] | ENZYMATIC Emax (%) [1] | ENZYMATIC hOGA; pIC50 [1] |
| --- | --- | --- | --- | --- | --- | --- |
| CC(=O)Nc1ncc(CN2CCC3(CCN(c4cncc(C)c4)C3)C2)s1 (centres unmarked) [Product 68] | 92.9% | 138 nM | 103% | 10.2 nM |  |  |
| Cc1cc(N2CCC3(CCN(C(C)c4cnc5c(c4)OCCO5)C3)C2)cc(C)n1 (centres unmarked) [Product 37] | 20.4% | > 1000 nM | 99% | 182 nM |  |  |
| CC(=O)Nc1ncc(CN2CCC3(CCN(c4cncc(C(F)(F)F)c4)C3)C2)s1 (centres unmarked) [Product 69] | 57.6% | 676 nM | 99.1% | 49 nM |  |  |
| CC(=O)Nc1ncc(CN2CCC3(CCN(c4cnc(C)c(C)c4)C3)C2)s1 (centres unmarked) [Product 51] | 93% | 123 nM | 100% | 8.51 nM |  |  |
| Cc1cc(N2CCC3(CCN(Cc4ccc5sc(C)nc5c4)C3)C2)cc(C(F)(F)F)n1 (centres unmarked) [Product 33] | 6.9% | > 1000 nM | 96.2% | 69.2 nM |  |  |
| CC(=O)Nc1ncc(CN2CCC3(CCN(c4ccnc(C)c4)C3)C2)s1 (centres unmarked) [Product 52] | 73.7% | 209 nM | 100% | 16.2 nM |  |  |
| COc1cc(N2CCC3(CCN(Cc4cnc(NC(C)=O)s4)C3)C2)ccn1 (centres unmarked) [Product 63] | 75.1% | 219 nM | 102% | 6.92 nM |  |  |
| CCc1cc(N2CCC3(CCN(Cc4cnc(NC(C)=O)s4)C3)C2)cc(C)n1 (centres unmarked) [Product 64] | 62.6% | 251 nM | 101% | 9.12 nM |  |  |
| CC(=O)Nc1ncc(CN2CCC3(CCN(c4c(C)cncc4C)C3)C2)s1 (centres unmarked) [Product 60] | 88.9% | 148 nM | 100% | 52.5 nM |  |  |
| CC(=O)Nc1ncc(CN2CCC3(CCN(c4cc(C)nc(C)c4)C3)C2)s1 (single isomer, unassigned) [Product 3] | 100% | 282 nM |  | 3.72 nM | 100.9% |  |
| Cc1cc(N2CCC3(CCN(Cc4nc5ccccc5[nH]4)C3)C2)nc(C)n1 (centres unmarked) [Product 30] | 7.7% | > 1000 nM | 100% | 324 nM |  |  |
| CC(=O)Nc1ncc(CN2CCC3(CCN(c4cc(C)ncc4C)C3)C2)s1 (centres unmarked) [Product 39] | 87.3% | 77.6 nM | 101% |  |  | 7.87 |
| CC(=O)Nc1cnc(N2CCC3(CCN(C(C)c4ccc5c(c4)OCO5)C3)C2)nc1 (centres unmarked) [Product 16] | 19.5% | > 10000 nM | 79% | 2690 nM |  |  |
| Cc1cc(N2CCC3(CCN(Cc4ccc5nccnc5c4)C3)C2)nc(C)n1 (centres unmarked) [Product 22] | 12% | > 1000 nM | 96% | 275 nM |  |  |
| CC(=O)Nc1ncc(CN2CCC3(CCN(c4cc(C)nc(C)n4)C3)C2)s1 (centres unmarked) [Product 9] | 85.4% | 170 nM | 101% |  |  | 7.88 |
| CCOc1cc(N2CCC3(CCN(Cc4cnc(NC(C)=O)s4)C3)C2)cc(C)n1 (centres unmarked) [Product 59] | 84.4% | 39.8 nM | 100% | 3.63 nM |  |  |
| CC(=O)Nc1ncc(CN2CCC3(CCN(c4ncc(C)cc4C)C3)C2)s1 (centres unmarked) [Product 49] | 88.8% | 45.7 nM | 99.6% |  |  | 8.41 |
| CC(=O)Nc1ncc(CN2CCC3(CCN(c4cncc(C5CC5)n4)C3)C2)s1 (centres unmarked) [Product 13] | 92.3% |  | 100% |  |  | 7.69 |
| Cc1cc(N2CCC3(CCN(C(C)c4ccc5scnc5c4)C3)C2)cc(C)n1 (centres unmarked) [Product 36] | 87.9% | 200 nM | 101% | 24 nM |  |  |
| Cc1cc(N2CCC3(CCN(C(C)c4ccc5nccnc5c4)C3)C2)cc(C)n1 (single isomer, unassigned) [Product 7] | 62.9% | 3800 nM | 98.6% | 72.4 nM |  |  |
| COc1cncc(N2CCC3(CCN(Cc4cnc(NC(C)=O)s4)C3)C2)c1 (centres unmarked) [Product 67] | 45.6% | 537 nM | 99.4% | 34.7 nM |  |  |
| Cc1cc(N2CCC3(CCN(Cc4ccc5sc(C)nc5c4)C3)C2)nc(C)n1 (centres unmarked) [Product 32] | 26.3% | > 1000 nM | 102% | 51.3 nM |  |  |
| Cc1cc(N2CCC3(CCN(C(C)c4ccc5sc(C)nc5c4)C3)C2)cc(C)n1 (centres unmarked) [Product 29] | 74.1% | 380 nM | 101% | 18.2 nM |  |  |
| CCc1cncc(N2CCC3(CCN(Cc4cnc(NC(C)=O)s4)C3)C2)n1 (centres unmarked) [Product 19] | 56.4% | 871 nM | 102% | 117 nM |  |  |
